Experimental data as given in publication PMC10224031, “Arylimidamides Have Potential for Chemoprophylaxis against Blood-Transmitted Chagas Disease” (Pathogens, 2023).
Several values for one entry are separate records, joined by “and”; a condition that tells them apart may be missing. Equal entries are not always repeated. Where two headings read alike, the source gives them in different places. Marks after values point to notes of the source that are not given here.

Legend:
[1] = system: bloodstream trypomastigotes of Trypanosoma cruzi; details: cited from earlier work; for fold more effective than crystal violet (trypanocidal activity): 4 °C in the presence of 96% mouse blood
[2] = system: T. cruzi bloodstream trypomastigotes; test: In vivo infectivity in Swiss mice of blood samples infected with bloodstream trypomastigotes pre-treated with AIAs or CV; set-up: species or system Trypanosoma cruzi; details: for suppression of the parasite load (parasitemia): both genders; for Clearance of the Parasitemia / Clearance of the Parasitemia after cyclophosphamide administration: cleared mice/total
Description: Male and female Swiss Webster mice (18–20 g) were obtained from the Fundação Oswaldo Cruz animal facilities (ICTB, Rio de Janeiro, Brazil). Mice were housed at a maximum of five per cage, kept in a specific pathogen-free (SPF) room at 20 to 24 °C under a 12-h/12 h light/dark cycle and provided sterilized water and chow ad libitum. The animals were allowed to acclimate for 7 days before the start of the experiments.
For evaluation of the chemoprophylactic potential of the AIAs and CV in vivo, the mice were inoculated (via i.p.) with 10^4 trypomastigotes into 200 µL of: (a) infected untreated blood samples; (b) infected using blood samples pre-treated for 2 h with the compounds at a concentration corresponding either to their EC50 or with 96 µM of one of the AIAs.
Parasitemia of individual mice was daily checked (until 10 dpi, and then, twice a week) by direct microscopic counting of parasites in 5 µL of blood taken via tail prick. Body weight was evaluated weekly, and mortality was checked daily until 40 days post-treatment and expressed as the percentage of survival. Thirty days after treatment the animals were immunosuppressed with cyclophosphamide (50 mg/kg) in three cycles of 4 consecutive days/week and the parasitemia and mortality rates were evaluated for 4 weeks.

mouse blood cells = type: cell-based; details: Swiss Webster, 24 h
Description: In 96-well microplates, 100 µL of the mouse blood suspension was added to the same volume of DB745 or DB766 at concentrations ranging from 2.4 to 192 µM. After incubation at 4 °C for 24 h, the samples were centrifuged (5 min/540× g) and a 100 µL aliquot was transferred to another microplate and the levels of hemoglobin measured at 540 nm. Deionized water was used as control for 100% hemolytic activity, and PBS as a negative control. The degree of hemolysis was calculated by the variation index (VI) that corresponds to the ratio of optical density (OD) of the treated sample/positive control. The reading of the OD of the samples was performed in the SpectraMax® Plus 384 Absorbance Plate Reader spectrophotometer (540 nm) and duplicate samples were run in at least two assays.

[3] = system: bloodstream trypomastigotes (BT) of Trypanosoma cruzi; test: In vitro infectivity of bloodstream trypomastigotes pre-treated with AIAs in cardiac cell cultures; type: cell-based; details: for Par./Infected CC / II (infection index = % infection × parasites/infected CM) / % Infection: BT pre-treated 2 h at EC50 (DB745 6.4 μM, DB766 1.14 μM)
Description: Bloodstream trypomastigote (BT) forms of the Y strain were obtained from infected male Swiss mice, at peak parasitemia. The purified parasites were resuspended in Dulbecco’s modified Eagle’s medium (DME) supplemented with 10% FBS (DMES). […] Then, the parasite suspensions were centrifuged (3000 rpm/10 min) and the pellet resuspended in RPMI, quantified through light microscopy, and used for the infection of Swiss embryo mouse cardiac cell cultures (CC) seeded (15 × 10^4 cells/well) in 24-well plates (10:1 parasite–cell ratio). After 24 h of parasite–host cell interaction, the infected cultures were washed to remove free parasites and maintained at 37 °C in an atmosphere of 5% CO2 and air and the culture medium replaced every 24 h. Afterwards, untreated and treated infected cardiac cells (CCs) were fixed and stained with Giemsa and examined via light microscopy. Only characteristic T. cruzi nuclei and kinetoplasts were counted as surviving parasites since irregular structures could mean parasites undergoing death. The activity of the AIAs was estimated by calculating the infection index (II), which corresponds to the percentage of infected cells multiplied by the average number of intracellular parasites per infected host cell. Duplicate assays were run in the same plate and at least two independent assays were performed as standard.

[4] = experiment # 1, inoculum pre-treated 2 h at 96 μM, male Swiss mice, n = 5, vehicle 261.1 ± 124.6
[5] = experiment # 1, inoculum pre-treated 2 h at EC50, male Swiss mice, n = 5, vehicle 261.1 ± 124.6
[6] = experiment # 1, pre-treatment at 96 μM
[7] = experiment # 1, pre-treatment at EC50
[8] = experiment # 2, inoculum pre-treated 2 h at 96 μM, male Swiss mice, n = 5, vehicle 277.9 ± 57.2
[9] = experiment # 2, inoculum pre-treated 2 h at EC50, male Swiss mice, n = 5, vehicle 277.9 ± 57.2
[10] = experiment # 2, pre-treatment at 96 μM
[11] = experiment # 2, pre-treatment at EC50
[12] = female Swiss mice, n = 10, inoculum pre-treated at 96 µM, vehicle 247.7 ± 25.3
[13] = female mice, 96 µM, untreated 0%
[14] = male Swiss mice, n = 10, inoculum pre-treated at 96 µM, vehicle 209.8 ± 29.2
[15] = 2 h incubation, infected mouse blood, read-out: EC50
[16] = 24 h of parasite-host cell interaction, untreated 23.4 ± 5.5

Row | SMILES | fold more effective than crystal violet (trypanocidal activity) [1] | suppression of the parasite load (parasitemia) ([2]; 96 µM) [%] | Parasitemia at 8 dpi [2, 4] | Parasitemia at 8 dpi [2, 5] | Clearance of the Parasitemia [2, 6] | Clearance of the Parasitemia [2, 7] | Parasitemia at 8 dpi [2, 8] | Parasitemia at 8 dpi [2, 9] | Clearance of the Parasitemia [2, 10] | Clearance of the Parasitemia [2, 11] | Parasitemia at 8 dpi [2, 12] | Clearance of the Parasitemia after cyclophosphamide administration ([2]; female Swiss mice, 96 µM) | animal survival [2, 13] [%] | Parasitemia at 8 dpi [2, 14] | Clearance of the Parasitemia after cyclophosphamide administration ([2]; male Swiss mice, 96 µM) | animal survival ([2]; male mice, 96 µM, untreated 0%) [%] | EC50 [1, 15] [µM] | OD (mouse blood cells; 3.9 μM) | VI (variation index = OD(treated)/OD(control)) (mouse blood cells; 3.9 μM) | OD (mouse blood cells; 10.6 μM) | further results
1 | CC(C)Oc1cc(NC(=N)c2ncccn2)ccc1-c1ccc(-c2ccc(NC(=N)c3ncccn3)cc2OC(C)C)o1 [DB1831] | at least 30 fold | > 99 | 0.0 ± 0.0 ×10^4 Parasites/mL | 366.2 ± 295.1 ×10^4 Parasites/mL | 2/5 | 0/5 | 0.0 ± 0.0 ×10^4 Parasites/mL | 157.7 ± 55.9 ×10^4 Parasites/mL | 4/5 | 0/5 | 0.1 ± 0.5 10^4 parasites/mL | 2/10 | 100 | 0.0 ± 0.0 10^4 parasites/mL | 7 out of 10 and 7/10 | 90 |  |  |  |  | EC50 ([1]; used as inoculation pre-treatment concentration (Table 3 footnote a), read-out: EC50/2 h): 0.5 µM; infected mice with complete clearance of parasitemia ([2]; 96 µM, even after immune suppression with cyclophosphamide): 60%; animal survival ([2]; 96 µM, vehicle treated samples 0%): ≥ 90%
2 | CN(C)c1ccc(C(=C2C=CC(=[N+](C)C)C=C2)c2ccc(N(C)C)cc2)cc1 [CV, crystal violet, reference compound] |  | > 99 | 34.7 ± 38.5 ×10^4 Parasites/mL |  | 0/5 |  | 1.6 ± 1.7 ×10^4 Parasites/mL |  | 0/5 |  | 0 ± 0 10^4 parasites/mL | 3/10 | 90 | 0.1 ± 0.2 10^4 parasites/mL | 4/10 | 60 |  |  |  |  | 
3 | CCOc1cc(NC(=N)c2ccccn2)ccc1-c1ccc(-c2ccc(NC(=N)c3ccccn3)cc2OCC)o1 [DB745] | at least 30 fold |  | 4.6 ± 2.4 ×10^4 Parasites/mL | 156.4 ± 31.1 ×10^4 Parasites/mL | 0/5 | 0/5 | 1.3 ± 1.1 ×10^4 Parasites/mL | 4.2 ± 2.1 ×10^4 Parasites/mL | 0/5 | 0/5 |  |  |  |  |  |  | 6.4 | 0.215 ± 0.037 | 0.082 | 0.184 ± 0.014 | reduction of parasitemia peak ([2]; inoculum pre-treated at EC50, male Swiss mice): > 98%; OD (mouse blood cells; 1.2 μM): 0.220 ± 0.063; VI (variation index = OD(treated)/OD(control)) (mouse blood cells; 1.2 μM): 0.084; VI (variation index = OD(treated)/OD(control)) (mouse blood cells; 10.6 μM): 0.070; OD (mouse blood cells; 32 μM): 0.195 ± 0.007; VI (variation index = OD(treated)/OD(control)) (mouse blood cells; 32 μM): 0.074; OD (mouse blood cells; 96 μM): 0.206 ± 0.004; VI (variation index = OD(treated)/OD(control)) (mouse blood cells; 96 μM): 0.078; Par./Infected CC ([3]; 24 h, untreated 1.6 ± 0.5): 1.4 ± 0.3; II (infection index = % infection × parasites/infected CM) ([3]; 24 h, untreated 38 ± 16): 10 ± 4.4; % Infection [3, 16]: 7.3 ± 3.4 %; Par./Infected CC ([3]; 72 h, untreated 17.7 ± 1.7): 18.6 ± 2.4; % Infection ([3]; 72 h, untreated 26.3 ± 2.3): 14.6 ± 0.2%; II (infection index = % infection × parasites/infected CM) ([3]; 72 h, untreated 466 ± 49): 272 ± 39; effect on parasite multiplication (parasites per infected host cell) ([3]; BT pre-incubated at EC50): only slightly impaired the parasite multiplication
4 | CC(C)Oc1cc(NC(=N)c2ccccn2)ccc1-c1ccc(-c2ccc(NC(=N)c3ccccn3)cc2OC(C)C)o1 [DB766] | at least 30 fold |  | 7.9 ± 5.2 ×10^4 Parasites/mL | 141.3 ± 152.7 ×10^4 Parasites/mL | 0/5 | 0/5 | 0.7 ± 1.1 ×10^4 Parasites/mL | 170.5 ± 39 ×10^4 Parasites/mL | 0/5 | 0/5 |  |  |  |  |  |  | 1.14 | 0.248 ± 0.018 | 0.094 | 0.200 ± 0.034 | VI (variation index = OD(treated)/OD(control)) (mouse blood cells; 10.6 μM): 0.076; OD (mouse blood cells; 32 μM): 0.230 ± 0.051; VI (variation index = OD(treated)/OD(control)) (mouse blood cells; 32 μM): 0.088; OD (mouse blood cells; 96 μM): 0.317 ± 0.069; VI (variation index = OD(treated)/OD(control)) (mouse blood cells; 96 μM): 0.121 *; Par./Infected CC ([3]; 24 h, untreated 1.6 ± 0.5): 0.5 ± 0.7; II (infection index = % infection × parasites/infected CM) ([3]; 24 h, untreated 38 ± 16): 0.5 ± 2.1; decrease in number of parasites per infected host cell ([3]; 24 h of CC infection, BT pre-incubated at EC50): 69%; % Infection [3, 16]: 1% and 1.0 ± 1.5 %; Par./Infected CC ([3]; 72 h, untreated 17.7 ± 1.7): 0.3 ± 0.4; % Infection ([3]; 72 h, untreated 26.3 ± 2.3): 0.1% and 0.1 ± 0.2%; II (infection index = % infection × parasites/infected CM) ([3]; 72 h, untreated 466 ± 49): 0.03 ± 0.2; decrease in number of parasites per infected host cell ([3]; 72 h of CC infection, BT pre-incubated at EC50): 98%; reduction in the II ([3]; BT pre-incubated at EC50): > 99%
